In brackets after ≈: the same amount, converted by molar mass. Read-outs that look alike come from different tables or passages of the source.
Tests used:
E. faecalis ATCC 29212 = assay: Microbroth dilution MIC (CLSI); conditions: Enterococcus faecalis, ATCC29212, read-out: MIC (μg/mL) E. faecalis ATCC 29212
E. coli topoisomerase IV = E. coli topoisomerase IV (Escherichia coli (strain K12), UniProt P20083); assay: Topoisomerase IV inhibition assay (Inspiralis, streptavidin-coated plates); format: biochemical
E. coli topoisomerase IV, sequence (P20083 whole entry, looked up): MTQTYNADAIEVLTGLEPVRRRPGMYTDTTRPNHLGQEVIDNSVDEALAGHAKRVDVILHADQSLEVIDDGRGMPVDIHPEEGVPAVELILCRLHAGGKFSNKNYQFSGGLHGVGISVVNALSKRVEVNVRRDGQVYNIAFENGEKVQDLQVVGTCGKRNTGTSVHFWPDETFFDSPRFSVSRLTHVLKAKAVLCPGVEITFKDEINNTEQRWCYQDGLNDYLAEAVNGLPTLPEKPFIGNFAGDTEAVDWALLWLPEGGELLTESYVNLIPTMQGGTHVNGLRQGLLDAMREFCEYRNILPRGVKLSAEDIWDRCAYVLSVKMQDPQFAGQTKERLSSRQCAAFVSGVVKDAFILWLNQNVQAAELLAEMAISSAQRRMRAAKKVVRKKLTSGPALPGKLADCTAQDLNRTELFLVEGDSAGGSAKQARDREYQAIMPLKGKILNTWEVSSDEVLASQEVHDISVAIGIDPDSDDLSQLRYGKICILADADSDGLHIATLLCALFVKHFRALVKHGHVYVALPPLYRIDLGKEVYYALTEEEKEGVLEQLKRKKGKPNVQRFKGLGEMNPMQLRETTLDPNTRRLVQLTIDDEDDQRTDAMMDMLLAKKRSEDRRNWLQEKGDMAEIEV
E. coli topoisomerase IV, sequence (P0AFI2 whole entry partner, looked up): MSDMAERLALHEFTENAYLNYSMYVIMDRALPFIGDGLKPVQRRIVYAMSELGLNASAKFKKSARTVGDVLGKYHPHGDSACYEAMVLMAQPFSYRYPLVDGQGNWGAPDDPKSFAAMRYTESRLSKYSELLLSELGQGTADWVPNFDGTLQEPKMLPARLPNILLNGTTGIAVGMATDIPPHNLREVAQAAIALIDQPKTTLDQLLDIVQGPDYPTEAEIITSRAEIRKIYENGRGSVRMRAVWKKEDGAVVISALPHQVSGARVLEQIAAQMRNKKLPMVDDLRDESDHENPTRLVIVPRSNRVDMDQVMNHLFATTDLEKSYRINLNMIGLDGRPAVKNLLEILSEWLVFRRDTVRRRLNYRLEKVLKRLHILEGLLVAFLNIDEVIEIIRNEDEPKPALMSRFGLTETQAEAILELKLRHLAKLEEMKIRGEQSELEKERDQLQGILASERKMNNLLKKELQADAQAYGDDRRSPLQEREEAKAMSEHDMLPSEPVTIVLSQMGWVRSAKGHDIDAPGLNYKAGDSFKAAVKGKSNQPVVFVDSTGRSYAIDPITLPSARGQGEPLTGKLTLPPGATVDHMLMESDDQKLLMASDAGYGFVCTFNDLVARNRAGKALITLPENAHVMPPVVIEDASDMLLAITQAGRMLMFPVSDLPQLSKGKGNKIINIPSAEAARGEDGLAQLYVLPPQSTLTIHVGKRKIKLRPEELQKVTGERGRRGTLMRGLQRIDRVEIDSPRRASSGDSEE
Description: Inhibitory activities for compounds of the present invention were determined on E. coli and S. aureus DNA gyrase and topoisomerase IV in an assay from Inspiralis on streptavidin-coated 96-well microtiter plates from Thermo scientific Pierce. […] After washing off the unbound oligonucleotide, the enzyme test was performed. […] Reaction solutions were incubated at 37° C. for 30 min. After that, the TF buffer (50 mM NaOAc with pH 5.0, 50 mM NaCl and 50 mM MgCl2) was added to terminate the enzymatic reaction. After additional incubation for 30 min at rt, during which biotin-oligonucleotide-plasmid triplex was formed, the unbound plasmid was washed off using TF buffer and SybrGOLD in T10 buffer (10 mM Tris HCl with pH 8.0 and 1 mM EDTA) was added. […] Initial screening was done at 100 or 10 nM concentration of inhibitors against E. coli DNA gyrase or 1 μM or 100 nM concentration against S. aureus DNA gyrase and E. coli and S. aureus topo IV. […] GraphPad Prism 6.0 software was used to calculate the IC50 values. The result is given as the average value of three independent measurements. […] Chemoth.

E. coli ATCC 25922 = assay: Microbroth dilution MIC (CLSI); conditions: Escherichia coli, ATCC25922, read-out: MIC (μg/mL) E. coli ATCC 25922
S. aureus ATCC 29213 = assay: Microbroth dilution MIC (CLSI); conditions: Staphylococcus aureus, ATCC29213, read-out: MIC (μg/mL) S. aureus ATCC 29213
S. aureus DNA gyrase = S. aureus DNA gyrase (Staphylococcus aureus, UniProt P0A0K8); assay: biochemical; conditions: read-out: IC50 DNA gyrase from S. aureus
Description: (§1) Inhibitory activities for compounds of the present invention were determined on E. coli and S. aureus DNA gyrase and topoisomerase IV in an assay from Inspiralis on streptavidin-coated 96-well microtiter plates from Thermo scientific Pierce. […] After washing off the unbound oligonucleotide, the enzyme test was performed. […] Reaction solutions were incubated at 37° C. for 30 min. After that, the TF buffer (50 mM NaOAc with pH 5.0, 50 mM NaCl and 50 mM MgCl2) was added to terminate the enzymatic reaction. After additional incubation for 30 min at rt, during which biotin-oligonucleotide-plasmid triplex was formed, the unbound plasmid was washed off using TF buffer and SybrGOLD in T10 buffer (10 mM Tris HCl with pH 8.0 and 1 mM EDTA) was added. […] GraphPad Prism 6.0 software was used to calculate the IC50 values. The result is given as the average value of three independent measurements. […] Chemoth.

[1] = biological target: S. aureus topoisomerase IV (Staphylococcus aureus, UniProt P0C1S7); assay: Topoisomerase IV inhibition assay (Inspiralis, streptavidin-coated plates); format: biochemical; conditions: read-out: IC50 DNA topoisomerase IV from S. aureus
Description: Inhibitory activities for compounds of the present invention were determined on E. coli and S. aureus DNA gyrase and topoisomerase IV in an assay from Inspiralis on streptavidin-coated 96-well microtiter plates from Thermo scientific Pierce. First, the plates were rehydrated with buffer (20 mM Tris-HCl with pH 7.6, 0.01% w/v BSA, 0.05% v/v Tween 20, 137 mM NaCl) and the biotinylated oligonucleotide was then immobilized. After washing off the unbound oligonucleotide, the enzyme test was performed. […] Reaction solutions were incubated at 37° C. for 30 min. After that, the TF buffer (50 mM NaOAc with pH 5.0, 50 mM NaCl and 50 mM MgCl2) was added to terminate the enzymatic reaction. After additional incubation for 30 min at rt, during which biotin-oligonucleotide-plasmid triplex was formed, the unbound plasmid was washed off using TF buffer and SybrGOLD in T10 buffer (10 mM Tris HCl with pH 8.0 and 1 mM EDTA) was added. The fluorescence was measured with a microplate reader (BioTek Synergy H4, excitation: 485 nm, emission: 535 nm). […]. GraphPad Prism 6.0 software was used to calculate the IC50 values. The result is given as the average value of three independent measurements. […]. Chemoth. 66, 2061-2096 (2011))) for E. coli and S. aureus topoisomerase IV) was used.

E. coli DNA gyrase = E. coli DNA gyrase (Escherichia coli (strain K12), UniProt P0AES6); assay: DNA gyrase inhibition assay (Inspiralis, streptavidin-coated plates); format: biochemical
Description: as §1

[2] = test system: S. aureus ATCC 43300 MRSA; assay: Modified microbroth dilution MIC at pH close to the skin; format: cell-based; conditions: Staphylococcus aureus
Description: (§2) To measure antibacterial activity of the compounds at pH that is similar to the human skin, compounds were assayed for their antimicrobial activity using a modified microbroth dilution assay. […] Vancomycin as included as a comparator antibiotic.

[3] = test system: S. aureus ATCC 700699 VISA; assay: as above; format: cell-based, Staphylococcus aureus
Description: as §2

E. faecium ATCC 35667 = assay: Microbroth dilution MIC (CLSI); conditions: Enterococcus faecium, ATCC35667, read-out: MIC (μg/mL) E. faecium ATCC 35667
[4] = test system: Pseudomonas aeruginosa ATCC 27863; assay: Microbroth dilution MIC (CLSI), extended panel; conditions: ATCC27863
[5] = test system: Staphylococcus aureus, MRSA ATCC 43300; assay: Microbroth dilution MIC (CLSI), extended panel
[6] = test system: Helicobacter pylori ATCC 43504; assay: Microbroth dilution MIC (CLSI), extended panel; conditions: ATCC43504
[7] = test system: Klebsiella pneumoniae ATCC 10031; assay: Microbroth dilution MIC (CLSI), extended panel; conditions: ATCC10031
[8] = test system: Haemophilus influenzae ATCC 49247; assay: Microbroth dilution MIC (CLSI), extended panel; conditions: ATCC49247
[9] = test system: Streptococcus pneumoniae ATCC 49619; assay: Microbroth dilution MIC (CLSI), extended panel; conditions: ATCC49619
[10] = test system: Neisseria gonorrhoeae ATCC 700825; assay: Microbroth dilution MIC (CLSI), extended panel; conditions: ATCC700825
[11] = test system: Enterococcus faecium ATCC 700221; assay: Microbroth dilution MIC (CLSI), extended panel; conditions: ATCC700221
[12] = test system: Clostridium difficile, toxigenic, ribotype 078 BAA-1875; assay: Microbroth dilution MIC (CLSI), extended panel; conditions: Clostridioides difficile, BAA1875

Compound	MIC (E. faecalis ATCC 29212) [µg/mL]	IC50 (E. coli topoisomerase IV) [nM]	MIC (E. coli ATCC 25922) [µg/mL]	MIC (S. aureus ATCC 29213) [µg/mL]	IC50 (S. aureus DNA gyrase) [nM]	IC50 [1] [nM]	IC50 (E. coli DNA gyrase) [nM]	further results
Cc1[nH]c(C(=O)Nc2nc3c(OCc4ccsc4)cc(C(=O)O)cc3s2)c(Cl)c1Cl [Example 31, 2-(3,4-dichloro-5-methyl-1H-pyrrole-2-carboxamido)-4-(thiophen-3-ylmethoxy)benzo[d]thiazole-6-carboxylic acid]	0.0156 (≈ 0.0323 µM)	< 400	4 (≈ 8.29 µM)	0.25 (≈ 0.518 µM)	< 20	< 400	< 5	
Cc1[nH]c(C(=O)Nc2nc3c(OCc4cccc(C(=O)O)c4)cc(C(=O)O)cc3s2)c(Cl)c1Cl [Example 24, 4-((3-carboxybenzyl)oxy)-2-(3,4-dichloro-5-methyl-1H-pyrrole-2-carboxamido)benzo[d]thiazole-6-carboxylic acid]	1.5 (≈ 2.88 µM)	< 400	> 64	> 64	< 20	< 400	< 5	
CN[C@H](CC(C)C)C(=O)N[C@H]1C(=O)N[C@@H](CC(N)=O)C(=O)N[C@H]2C(=O)N[C@H]3C(=O)N[C@H](C(=O)N[C@H](C(=O)O)c4cc(O)cc(O)c4-c4cc3ccc4O)[C@H](O)c3ccc(c(Cl)c3)Oc3cc2cc(c3O[C@@H]2O[C@H](CO)[C@@H](O)[C@H](O)[C@H]2O[C@H]2C[C@](C)(N)[C@H](O)[C@H](C)O2)Oc2ccc(cc2Cl)[C@H]1O [Vancomycin, reference compound]								MIC ([2]; pH 5.5): 2 µg/mL (≈ 1.38 µM); MIC ([2]; pH 7.3): 1 µg/mL (≈ 0.69 µM); MIC ([3]; S. aureus ATCC 700699 VISA, pH 5.5): 8 µg/mL (≈ 5.52 µM); MIC ([3]; Staphylococcus aureus): 8 µg/mL (≈ 5.52 µM)
Cc1[nH]c(C(=O)Nc2nc3c(-c4ccccc4)cc(C(=O)O)cc3s2)c(Cl)c1Cl [Example 44, 2-(3,4-dichloro-5-methyl-1H-pyrrole-2-carboxamido)-4-phenylbenzo[d]thiazole-6-carboxylic acid]	0.023 (≈ 0.0515 µM)	< 400	> 64	0.0312 (≈ 0.07 µM)	< 20	< 400	< 5	
Cc1[nH]c(C(=O)Nc2nc3c(N4CCCC4)cc(C(=O)O)cc3s2)c(Cl)c1Cl [Example 37, 2-(3,4-dichloro-5-methyl-1H-pyrrole-2-carboxamido)-4-(pyrrolidin-1-yl)benzo[d]thiazole-6-carboxylic acid]	0.125 (≈ 0.285 µM)	< 400	16 (≈ 36.4 µM)	0.25 (≈ 0.569 µM)	< 20	< 400	< 5	
Cc1[nH]c(C(=O)Nc2nc3c(OCc4cccc(F)c4)cc(C(=O)O)cc3s2)c(Cl)c1Cl [Example 30, 2-(3,4-dichloro-5-methyl-1H-pyrrole-2-carboxamido)-4-((3-fluorobenzyl)oxy)benzo[d]thiazole-6-carboxylic acid]	0.001 (≈ 0.00202 µM)		> 64	0.0625 (≈ 0.126 µM)	< 20	< 400		
Cc1[nH]c(C(=O)Nc2nc3c(OCCN4CCOCC4)cc(C(=O)O)cc3s2)c(Cl)c1Cl.Cl [Example 10, 4-(2-((6-carboxy-2-(3,4-dichloro-5-methyl-1H-pyrrole-2-carboxamido)benzo[d]thiazol-4-yl)oxy)ethyl)morpholin-4-ium chloride]	8	< 400	> 64	> 64	< 20	< 400	< 5	MIC (E. faecium ATCC 35667): 40.2 µg/mL
Cc1[nH]c(C(=O)Nc2nc3c(OCc4ccc(C(=O)O)cc4)cc(C(=O)O)cc3s2)c(Cl)c1Cl [Example 12, 4-((4-carboxybenzyl)oxy)-2-(3,4-dichloro-5-methyl-1H-pyrrole-2-carboxamido)benzo[d]thiazole-6-carboxylic acid]	> 64	< 400	> 64	> 64	< 20	< 400	< 5	MIC (E. faecium ATCC 35667): > 64 µg/mL
Cc1[nH]c(C(=O)Nc2nc3c(OCc4ccccc4)cc(C(=O)O)cc3s2)c(Cl)c1Cl [Example 9, 4-(benzyloxy)-2-(3,4-dichloro-5-methyl-1H-pyrrole-2-carboxamido)benzo[d]thiazole-6-carboxylic acid]	≤ 0.0312		32 (≈ 67.2 µM)	0.25 (≈ 0.525 µM)		< 400		MIC [4]: 5 µg/mL (≈ 10.5 µM); MIC [5]: 0.4 µg/mL (≈ 0.84 µM); MIC [6]: 4 µg/mL (≈ 8.4 µM); MIC [7]: 4 µg/mL (≈ 8.4 µM); MIC [8]: 0.125 µg/mL (≈ 0.262 µM); MIC ([2]; pH 5.5, read-out: MIC): 0.008 µg/mL (≈ 0.0168 µM); MIC ([2]; pH 7.3, read-out: MIC): 0.2 µg/mL (≈ 0.42 µM); MIC [9]: 0.25 µg/mL (≈ 0.525 µM); MIC ([3]; Staphylococcus aureus, S. aureus ATCC 700699 VISA, pH 5.5, read-out: MIC): 0.0005 µg/mL (≈ 0.00105 µM); MIC ([3]; Staphylococcus aureus, S. aureus ATCC 700699 VISA, pH 7.3, read-out: MIC): 0.02 µg/mL (≈ 0.042 µM); MIC [10]: ≤ 0.0312 µg/mL; MIC (E. faecium ATCC 35667): 0.09 µg/mL (≈ 0.189 µM); MIC [11]: 0.05 µg/mL (≈ 0.105 µM); MIC [12]: ≤ 0.0312 µg/mL
Cc1[nH]c(C(=O)Nc2nc3ccc(C(=O)NCC(=O)O)cc3s2)c(Cl)c1Cl [Example 23, (2-(3,4-dichloro-5-methyl-1H-pyrrole-2-carboxamido)benzo[d]thiazole-6-carbonyl)glycine]	16 (≈ 37.4 µM)	< 400	> 64	64 (≈ 150 µM)	< 20	< 400	7.1 ± 3.2	
Cc1[nH]c(C(=O)Nc2nc3c(OCc4cccs4)cc(C(=O)O)cc3s2)c(Cl)c1Cl [Example 32, 2-(3,4-dichloro-5-methyl-1H-pyrrole-2-carboxamido)-4-(thiophen-2-ylmethoxy)benzo[d]thiazole-6-carboxylic acid]	0.0163 (≈ 0.0337 µM)	< 400	8 (≈ 16.6 µM)	0.065 (≈ 0.135 µM)	< 20	< 400	< 5	

From patent US12258342B2, “Class of DNA gyrase and/or topoisomerase IV inhibitors with activity against gram-positive and gram-negative bacteria” (Univerza v Ljubljani, priority 2018, dated 2025)
